Experimental data: patent US8993756B2 (Merck Sharp & Dohme Corp., priority 2011, dated 2015)
pIC50: −log10 of the molar value.

Key:
JAK3 = JAK3 (Homo sapiens (Human), UniProt P52333); test: Jak Biochemical HTRF Assay (JAK3); conditions: recombinant GST-tagged catalytic domain, [ATP] 2.9 μM
JAK2 = JAK2 (Homo sapiens (Human), UniProt O60674); test: Jak Biochemical HTRF Assay (JAK2); conditions: recombinant GST-tagged catalytic domain, [ATP] 8.5 μM
Sequence of JAK2 (O60674 849-1124): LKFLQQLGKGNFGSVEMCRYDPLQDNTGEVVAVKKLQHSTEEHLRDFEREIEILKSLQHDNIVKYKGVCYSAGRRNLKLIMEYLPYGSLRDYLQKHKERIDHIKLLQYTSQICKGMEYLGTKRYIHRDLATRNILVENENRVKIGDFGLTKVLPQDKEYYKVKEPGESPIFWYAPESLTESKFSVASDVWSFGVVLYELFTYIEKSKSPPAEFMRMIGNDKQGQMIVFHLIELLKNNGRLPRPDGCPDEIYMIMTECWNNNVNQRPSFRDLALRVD

Sequence of JAK3 (P52333 822-1111): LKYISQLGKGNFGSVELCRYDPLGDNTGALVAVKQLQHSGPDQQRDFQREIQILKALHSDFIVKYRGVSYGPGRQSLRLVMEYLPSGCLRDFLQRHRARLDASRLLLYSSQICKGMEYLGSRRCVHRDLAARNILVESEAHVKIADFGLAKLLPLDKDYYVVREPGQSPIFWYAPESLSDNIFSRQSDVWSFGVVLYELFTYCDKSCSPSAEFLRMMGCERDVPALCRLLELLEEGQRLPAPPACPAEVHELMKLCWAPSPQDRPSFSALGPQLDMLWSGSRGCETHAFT

## CCOC(=O)c1c[nH]c2ncnc(-c3cccc(NC(=O)C=C4CCCC4)c3)c12 [Example 5-37, ethyl 4-{3-[(cyclopentylideneacetyl)amino]phenyl}-7H-pyrrolo[2,3-d]pyrimidine-5-carboxylate]
JAK3; given as range class
  pIC50: 6.30 to 8.00
JAK2; given as range class
  pIC50: < 6.30

## C/C=C(/OC)C(=O)Nc1cccc(-c2ncnc3[nH]cc(C(=O)OCC)c23)c1 [Example 5-38, ethyl 4-(3-{[(2E)-2-methoxybut-2-enoyl]amino}phenyl)-7H-pyrrolo[2,3-d]pyrimidine-5-carboxylate]
JAK3; given as range class
  pIC50: 6.30 to 8.00
JAK2; given as range class
  pIC50: < 6.30

## CCOC(=O)c1c[nH]c2ncnc(-c3cccc(NC(=O)/C=C/c4nccs4)c3)c12 [Example 5-39, ethyl 4-(3-{[(2E)-3-(1,3-thiazol-2-yl)prop-2-enoyl]amino}phenyl)-7H-pyrrolo[2,3-d]pyrimidine-5-carboxylate]
JAK3
  pIC50: 8.41
JAK2
  pIC50: 6.30

## CCOC(=O)c1c[nH]c2ncnc(-c3cccc(NC(=O)C4=COCC4)c3)c12 [Example 5-40]
JAK3; given as range class
  pIC50: 6.30 to 8.00
JAK2; given as range class
  pIC50: < 6.30

## C=C(CN1CCOCC1)C(=O)Nc1cccc(-c2ncnc3[nH]cc(C(=O)OCC)c23)c1 [Example 5-41, ethyl 4-(3-{[2-(morpholin-4-ylmethyl)acryloyl]amino}phenyl)-7H-pyrrolo[2,3-d]pyrimidine-5-carboxylate]
JAK3
  pIC50: 9.18
JAK2
  pIC50: < 5.83

## CCOC(=O)c1c[nH]c2ncnc(-c3cccc(NC(=O)/C=C/C(F)(F)F)c3)c12 [Example 5-42, ethyl 4-(3-{[(2E)-4,4,4-trifluorobut-2-enoyl]amino}phenyl)-7H-pyrrolo[2,3-d]pyrimidine-5-carboxylate]
JAK3; given as range class
  pIC50: 6.30 to 8.00
JAK2; given as range class
  pIC50: < 6.30

## CCOC(=O)c1c[nH]c2ncnc(-c3cccc(NC(=O)/C(C)=C/c4ccccc4)c3)c12 [Example 5-43, ethyl 4-(3-{[(2E)-2-methyl-3-phenylprop-2-enoyl]amino}phenyl)-7H-pyrrolo[2,3-d]pyrimidine-5-carboxylate]
JAK3; given as range class
  pIC50: 6.30 to 8.00
JAK2; given as range class
  pIC50: < 6.30

## CCOC(=O)c1c[nH]c2ncnc(-c3cccc(NC(=O)/C=C/c4ccc(C(F)(F)F)cc4)c3)c12 [Example 5-44, ethyl 4-[3-({(2E)-3-[4-(trifluoromethyl)phenyl]prop-2-enoyl}amino)phenyl]-7H-pyrrolo[2,3-d]pyrimidine-5-carboxylate]
JAK3; given as range class
  pIC50: 6.30 to 8.00
JAK2; given as range class
  pIC50: < 6.30

## C=C(COC)C(=O)Nc1cccc(-c2ncnc3[nH]cc(C(=O)OCC)c23)c1 [Example 5-45, ethyl 4-(3-{[2-(methoxymethyl)acryloyl]amino}phenyl)-7H-pyrrolo[2,3-d]pyrimidine-5-carboxylate]
JAK3
  pIC50: 10.60
JAK2
  pIC50: < 5.83

## CCOC(=O)c1c[nH]c2ncnc(-c3cccc(Nc4nc(Cl)ns4)c3)c12 [Example 6-1, Ethyl 4-{3-[(3-chloro-1,2,4-thiadiazol-5-yl)amino]phenyl}-7H-pyrrolo[2,3-d]pyrimidine-5-carboxylate]
JAK3
  pIC50: 8.04
JAK2
  pIC50: 6.96

## CCOC(=O)c1c[nH]c2ncnc(-c3cccc(Nc4nccnc4C#N)c3)c12 [Example 6-2, Ethyl-4-{3-[(3-cyanopyrazin-2-yl)amino]phenyl}-7H-pyrrolo[2,3-d]pyrimidine-5-carboxylate]
JAK3; given as range class
  pIC50: 6.30 to 8.00
JAK2; given as range class
  pIC50: < 6.30

## CCOC(=O)c1c[nH]c2ncnc(-c3cccc(Nc4ncnc(C#N)n4)c3)c12 [Example 6-3, ethyl 4-{3-[(4-cyano-1,3,5-triazin-2-yl)amino]phenyl}-7H-pyrrolo[2,3-d]pyrimidine-5-carboxylate]
JAK3; given as range class
  pIC50: 6.30 to 8.00
JAK2; given as range class
  pIC50: 6.30 to 8.00

## CCOC(=O)c1c[nH]c2ncnc(-c3cccc(Nc4nc(C#N)ns4)c3)c12 [Example 6-4, ethyl 4-{3-[(3-cyano-1,2,4-thiadiazol-5-yl)amino]phenyl}-7H-pyrrolo[2,3-d]pyrimidine-5-carboxylate]
JAK3; given as range class
  pIC50: 6.30 to 8.00
JAK2; given as range class
  pIC50: < 6.30

## CCOC(=O)c1c[nH]c2ncnc(-c3cccc(-c4ccnc(C#N)n4)c3)c12 [Example 7-1, Ethyl 4-(3-(2-cyanopyrimidin-4-yl)phenyl)-7H-pyrrolo[2,3-d]pyrimidine-5-carboxylate]
JAK3; given as range class
  pIC50: 6.30 to 8.00
JAK2; given as range class
  pIC50: < 6.30

## CCOC(=O)c1c[nH]c2ncnc(-c3cccc(-c4nc(Cl)ns4)c3)c12 [Example 7-2, ethyl 4-(3-(3-chloro-1,2,4-thiadiazol-5-yl)phenyl)-7H-pyrrolo[2,3-d]pyrimidine-5-carboxylate]
JAK3; given as range class
  pIC50: 6.30 to 8.00
JAK2; given as range class
  pIC50: < 6.30

## CCOC(=O)c1c[nH]c2ncnc(-c3cccc(-c4nc(Br)ns4)c3)c12 [Example 7-3, ethyl 4-(3-(3-bromo-1,2,4-thiadiazol-5-yl)phenyl)-7H-pyrrolo[2,3-d]pyrimidine-5-carboxylate]
JAK3; given as range class
  pIC50: 6.30 to 8.00
JAK2; given as range class
  pIC50: < 6.30

## CCOC(=O)c1c[nH]c2ncnc(-c3cccc(-c4nc(C#N)ns4)c3)c12 [Example 7-4, Ethyl 4-(3-(cyano-1,2,4-thiadiazol-5-yl)phenyl)-7H-pyrrolo[2,3-d]pyrimidine-5-carboxylate]
JAK3; given as range class
  pIC50: 6.30 to 8.00
JAK2; given as range class
  pIC50: < 6.30

## CCOC(=O)c1c[nH]c2ncnc(-c3cccc(C(=O)NCC#N)c3)c12 [Example 8-1]
JAK3; given as range class
  pIC50: 6.30 to 8.00
JAK2; given as range class
  pIC50: < 6.30

## CCOC(=O)c1c[nH]c2ncnc(-c3cccc(NC(=O)NCC#N)c3)c12 [Example 9-1, Ethyl 4-(3-(3-(cyanomethyl)ureido)phenyl)-7H-pyrrolo[2,3-d]pyrimidine-5-carboxylate]
JAK3; given as range class
  pIC50: 6.30 to 8.00
JAK2; given as range class
  pIC50: < 6.30

## CCOC(=O)c1c[nH]c2ncnc(-c3cccc(NC(=O)NC#N)c3)c12 [Example 9-2, ethyl 4-(3-(3-cyanoureido)phenyl)-7H-pyrrolo[2,3-d]pyrimidine-5-carboxylate]
JAK3; given as range class
  pIC50: 6.30 to 8.00
JAK2; given as range class
  pIC50: 6.30 to 8.00

## C=CS(=O)(=O)Nc1cccc(-c2ncnc3[nH]cc(C(=O)OCC)c23)c1 [Example 10-1, Ethyl 4-{3-[(ethenylsulfonyl)amino]phenyl}-7H-pyrrolo[2,3-d]pyrimidine-5-carboxylate]
JAK3
  pIC50: 10.43
JAK2
  pIC50: < 5.83

## C/C=C/S(=O)(=O)Nc1cccc(-c2ncnc3[nH]cc(C(=O)OCC)c23)c1 [Example 10-2, ethyl 4-(3-{[(1E)-prop-1-en-1-ylsulfonyl]amino}phenyl)-7H-pyrrolo[2,3-d]pyrimidine-5-carboxylate]
JAK3
  pIC50: 8.09
JAK2
  pIC50: < 5.83

## C=C(C)S(=O)(=O)Nc1cccc(-c2ncnc3[nH]cc(C(=O)OCC)c23)c1 [Example 10-3, ethyl 4-(3-{[(1-methylethenyl)sulfonyl]amino}phenyl)-7H-pyrrolo[2,3-d]pyrimidine-5-carboxylate]
JAK3; given as range class
  pIC50: 6.30 to 8.00
JAK2; given as range class
  pIC50: < 6.30

## C=C(C)C(=O)Nc1cc(-c2ncnc3[nH]cc(C(=O)OC)c23)ccc1F [Example 11-1, Methyl 4-{4-fluoro-3-[(2-methylacryloyl)amino]phenyl}-7H-pyrrolo[2,3-d]pyrimidine-5-carboxylate]
JAK3
  pIC50: 9.40
JAK2
  pIC50: < 5.83

## C=C(C)C(=O)Nc1cccc(-c2ncnc3[nH]cc(C(=O)OC)c23)c1 [Example 11-2, methyl 4-{3-[(2-methylacryloyl)amino]phenyl}-7H-pyrrolo[2,3-d]pyrimidine-5-carboxylate]
JAK3
  pIC50: 8.70
JAK2
  pIC50: < 5.83

## C=CC(=O)N(C)c1cccc(-c2ncnc3[nH]cc(C(=O)OCC)c23)c1 [Example 12-1, Ethyl 4-(3-(N-methylacrylamido)phenyl)-7H-pyrrolo[2,3-d]pyrimidine-5-carboxylate]
JAK3
  pIC50: 9.89
JAK2
  pIC50: < 5.83
